Data published in patent US9439428B2, “Herbicidal compounds” (SYNGENTA LIMITED, priority 2011, dated 2016).

Experiments:
Type in all cases: in vivo
Conditions in all cases: 1000 g/h, evaluated after 13 days, five point scale
[1] = system: Abuthilon theophrasti (ABUTH); assay: Post-emergence herbicidal glasshouse test
Protocol: (§1) Seeds of a variety of test species are sown in standard soil in pots (Alopecurus myosuroides (ALOMY), Setaria faberi (SETFA), Echinochloa crus-galli (ECHCG), Abuthilon theophrasti (ABUTH) and Amaranthus retoflexus (AMARE)). After cultivation for one day (pre-emergence) or after 8 days cultivation (post-emergence) under controlled conditions in a glasshouse (at 24/16° C., day/night; 14 hours light; 65% humidity), the plants are sprayed with an aqueous spray solution derived from the formulation of the technical active ingredient in acetone/water (50:50) solution containing 0.5% Tween 20 (polyoxyethelyene sorbitan monolaurate, CAS RN 9005-64-5). Compounds ae applied at 1000 g/h. The test plants are then grown in a glasshouse under controlled conditions in a glasshouse (at 24/16° C., day/night; 14 hours light; 65% humidity) and watered twice daily. After 13 days for pre and post-emergence, the test is evaluated for the percentage herbicidal damage caused to the plant. The biological activities are shown in the following table on a five point scale (5=80-100% damage; 4=60-79% damage; 3=40-59% damage; 2=20-39% damage; 1=0-19% damage).

[2] = system: Alopecurus myosuroides (ALOMY); assay: Post-emergence herbicidal glasshouse test
Protocol: as §1

[3] = system: Amaranthus retoflexus (AMARE); assay: Post-emergence herbicidal glasshouse test
Protocol: as §1

[4] = system: Echinochloa crus-galli (ECHCG); assay: Post-emergence herbicidal glasshouse test
Protocol: as §1

Setaria faberi (SETFA) [5] = assay: Post-emergence herbicidal glasshouse test
Protocol: as §1

[6] = system: Abuthilon theophrasti (ABUTH); assay: Pre-emergence herbicidal glasshouse test
Protocol: as §1

[7] = system: Alopecurus myosuroides (ALOMY); assay: Pre-emergence herbicidal glasshouse test
Protocol: as §1

[8] = system: Amaranthus retoflexus (AMARE); assay: Pre-emergence herbicidal glasshouse test
Protocol: as §1

[9] = system: Echinochloa crus-galli (ECHCG); assay: Pre-emergence herbicidal glasshouse test
Protocol: as §1

Setaria faberi (SETFA) [10] = assay: Pre-emergence herbicidal glasshouse test
Protocol: as §1

COc1ccc(-n2nc(C)cc(C(=O)C3C(=O)C4CCC(C4)C3=O)c2=O)cc1 (stereo not drawn) [Compound 1.4]
5 (5=80-100% damage): percentage herbicidal damage, ABUTH, POST Application [1] | percentage herbicidal damage, ALOMY, POST Application [2] | percentage herbicidal damage, AMARE, POST Application [3] | percentage herbicidal damage, ECHCG, POST Application [4] | percentage herbicidal damage, SETFA, POST Application (Setaria faberi (SETFA) [5]) | percentage herbicidal damage, ABUTH, PRE Application [6] | percentage herbicidal damage, ALOMY, PRE Application [7] | percentage herbicidal damage, AMARE, PRE Application [8] | percentage herbicidal damage, ECHCG, PRE Application [9] | percentage herbicidal damage, SETFA, PRE Application (Setaria faberi (SETFA) [10])

COc1ccc(-n2nc(C)cc(C(=O)C3C(=O)CCCC3=O)c2=O)cc1 [Compound 1.3]
5 (5=80-100% damage): percentage herbicidal damage, ABUTH, POST Application [1] | percentage herbicidal damage, ALOMY, POST Application [2] | percentage herbicidal damage, AMARE, POST Application [3] | percentage herbicidal damage, ECHCG, POST Application [4] | percentage herbicidal damage, SETFA, POST Application (Setaria faberi (SETFA) [5]) | percentage herbicidal damage, ABUTH, PRE Application [6] | percentage herbicidal damage, ALOMY, PRE Application [7] | percentage herbicidal damage, AMARE, PRE Application [8] | percentage herbicidal damage, ECHCG, PRE Application [9] | percentage herbicidal damage, SETFA, PRE Application (Setaria faberi (SETFA) [10])

O=C1CCCC(=O)C1C(=O)c1ccnn(-c2ccccc2)c1=O [Compound 1.1, 2-(3-Oxo-2-phenyl-2,3-dihydropyridazine-4-carbonyl)-cyclohexane-1,3-dione]
5 (5=80-100% damage): percentage herbicidal damage, ABUTH, POST Application [1] | percentage herbicidal damage, ALOMY, POST Application [2] | percentage herbicidal damage, AMARE, POST Application [3] | percentage herbicidal damage, ECHCG, POST Application [4] | percentage herbicidal damage, SETFA, POST Application (Setaria faberi (SETFA) [5]) | percentage herbicidal damage, ABUTH, PRE Application [6] | percentage herbicidal damage, ALOMY, PRE Application [7] | percentage herbicidal damage, AMARE, PRE Application [8] | percentage herbicidal damage, ECHCG, PRE Application [9] | percentage herbicidal damage, SETFA, PRE Application (Setaria faberi (SETFA) [10])

Cc1cc(C(=O)C2C(=O)CCCC2=O)c(=O)n(-c2ccccc2)n1 [Compound 1.2, 2-(6-Methyl-3-oxo-2-phenyl-2,3-dihydropyridazine-4-carbonyl)-cyclohexane-1,3-dione]
5 (5=80-100% damage): percentage herbicidal damage, ABUTH, POST Application [1] | percentage herbicidal damage, ALOMY, POST Application [2] | percentage herbicidal damage, AMARE, POST Application [3] | percentage herbicidal damage, ECHCG, POST Application [4] | percentage herbicidal damage, SETFA, POST Application (Setaria faberi (SETFA) [5]) | percentage herbicidal damage, ABUTH, PRE Application [6] | percentage herbicidal damage, ALOMY, PRE Application [7] | percentage herbicidal damage, AMARE, PRE Application [8] | percentage herbicidal damage, ECHCG, PRE Application [9] | percentage herbicidal damage, SETFA, PRE Application (Setaria faberi (SETFA) [10])

Cc1cc(C(=O)C2C(=O)CC(C)CC2=O)c(=O)n(-c2ccccc2C)n1 (stereo not drawn) [Compound 1.6]
5 (5=80-100% damage): percentage herbicidal damage, ABUTH, POST Application [1] | percentage herbicidal damage, ALOMY, POST Application [2] | percentage herbicidal damage, AMARE, POST Application [3] | percentage herbicidal damage, ECHCG, POST Application [4] | percentage herbicidal damage, SETFA, POST Application (Setaria faberi (SETFA) [5]) | percentage herbicidal damage, ABUTH, PRE Application [6] | percentage herbicidal damage, ALOMY, PRE Application [7] | percentage herbicidal damage, AMARE, PRE Application [8] | percentage herbicidal damage, ECHCG, PRE Application [9] | percentage herbicidal damage, SETFA, PRE Application (Setaria faberi (SETFA) [10])

COc1ccc(-n2nc(C)cc(C(=O)C3C(=O)CC(C)CC3=O)c2=O)cc1 (stereo not drawn) [Compound 1.5]
5 (5=80-100% damage): percentage herbicidal damage, ABUTH, POST Application [1] | percentage herbicidal damage, ALOMY, POST Application [2] | percentage herbicidal damage, AMARE, POST Application [3] | percentage herbicidal damage, ECHCG, POST Application [4] | percentage herbicidal damage, SETFA, POST Application (Setaria faberi (SETFA) [5]) | percentage herbicidal damage, ABUTH, PRE Application [6] | percentage herbicidal damage, ALOMY, PRE Application [7] | percentage herbicidal damage, AMARE, PRE Application [8] | percentage herbicidal damage, ECHCG, PRE Application [9] | percentage herbicidal damage, SETFA, PRE Application (Setaria faberi (SETFA) [10])

Cc1cc(C(=O)C2C(=O)C3CCC(C3)C2=O)c(=O)n(-c2ccccc2)n1 (stereo not drawn) [Compound 1.7]
5 (5=80-100% damage): percentage herbicidal damage, ABUTH, POST Application [1] | percentage herbicidal damage, ALOMY, POST Application [2] | percentage herbicidal damage, AMARE, POST Application [3] | percentage herbicidal damage, ECHCG, POST Application [4] | percentage herbicidal damage, SETFA, POST Application (Setaria faberi (SETFA) [5]) | percentage herbicidal damage, ABUTH, PRE Application [6] | percentage herbicidal damage, ALOMY, PRE Application [7] | percentage herbicidal damage, AMARE, PRE Application [8] | percentage herbicidal damage, ECHCG, PRE Application [9] | percentage herbicidal damage, SETFA, PRE Application (Setaria faberi (SETFA) [10])

Cc1cc(C(=O)C2C(=O)C(C)(C)C(=O)C(C)(C)C2=O)c(=O)n(-c2ccccc2)n1 [Compound 1.8]
5 (5=80-100% damage): percentage herbicidal damage, ABUTH, POST Application [1] | percentage herbicidal damage, ALOMY, POST Application [2] | percentage herbicidal damage, AMARE, POST Application [3] | percentage herbicidal damage, ECHCG, POST Application [4] | percentage herbicidal damage, SETFA, POST Application (Setaria faberi (SETFA) [5]) | percentage herbicidal damage, ABUTH, PRE Application [6] | percentage herbicidal damage, ALOMY, PRE Application [7] | percentage herbicidal damage, AMARE, PRE Application [8] | percentage herbicidal damage, ECHCG, PRE Application [9] | percentage herbicidal damage, SETFA, PRE Application (Setaria faberi (SETFA) [10])

Cc1cc(C(=O)C2C(=O)CC(C)CC2=O)c(=O)n(-c2ccccc2)n1 (stereo not drawn) [Compound 1.9]
5 (5=80-100% damage): percentage herbicidal damage, ABUTH, POST Application [1] | percentage herbicidal damage, ALOMY, POST Application [2] | percentage herbicidal damage, AMARE, POST Application [3] | percentage herbicidal damage, ECHCG, POST Application [4] | percentage herbicidal damage, SETFA, POST Application (Setaria faberi (SETFA) [5]) | percentage herbicidal damage, ABUTH, PRE Application [6] | percentage herbicidal damage, ALOMY, PRE Application [7] | percentage herbicidal damage, AMARE, PRE Application [8] | percentage herbicidal damage, ECHCG, PRE Application [9] | percentage herbicidal damage, SETFA, PRE Application (Setaria faberi (SETFA) [10])
